# Experimental data reported in patent publication US20110045065A1, “SUBSTANCE HAVING ANTIOXIDANT, GEROPROTECTIVE AND ANTI-ISCHEMIC ACTIVITY AND METHOD FOR THE PREPARATION THEREOF” (priority 2005, published 2011).
# “And” between values parts separate entries of the source, which are not always exact repeats. Equal entries are not always repeated. “Also recorded” adds a separate entry of the source.
# Legend:
# [1] = tested on: external segments of photoreceptor cells; assay: Ascorbate-induced peroxidation of external segments of photoreceptor cells; format: biochemical, pig
# Description: The external segments of photoreceptor cells are obtained from pig retinas according to standard procedure, using methods of differential centrifuging in a saccharose density gradient. […] Subsequently, the process was stopped by 15% trichloroacetic acid, and the concentration of TBK-active products has been determined. Samples being free of compound Ic were used as a control.
# In these experiments a comparison of the speed of ascorbate-induced peroxidation of external segments of photoreceptor cells of pig eyes has been carried out, said comparison being determined with respect to the accumulation of TBK-active products in the presence of different compound I salts.
# [2] = Antiradical activity by chemiluminescence (rate constant k7); format: physicochemical
# Method: The efficiency of 3-hydroxypyridine derivatives as inhibitors of free radical reactions was determined by hemiluminescent method by means of measurement of speed constants of their reaction with ethyl-benzene k7 peroxide radicals.
# The measurements of intensity of chemiluminescence (HL) have been carried out with an apparatus CNK-7, designed and made by IHF RAN USSR. A photomultiplier FAU-38 is used as an optical receiver. The fixed concentration of radicals during oxidation of […] (cumole) is controlled by an initiator being azo-bis-isobutyronitrile.
# In order to increase HL emission the activator chelate Eu (europium tristenoyl triphtoroacetonate with 1,10-phenatroline) has been used that has allowed to conduct measurements at low speed values of radical initiation (W1=10^−8-10^−9 mol/I.s.) and, therefore, at small amounts of added sample. A weighed amount of samples studied was diluted in an suitable solvent (chlorobenzene or acetonitrile) and a small amount of the prepared solution (0.1-0.25 ml) was added to the reaction mixture (5-6 ml), arranged in a temperature-controlled reaction vessel of the HL-device. The change of emission intensity was recorded.
# [3] = tested on: acute myocardial ischemia (occlusion of the coronary artery of rats); assay: Sizes of necrosis and ischemia zones in acute myocardial ischemia; format: in vivo, rat
# Method: The experiments are carried out with non-pedigree male rats having a weight of 250-300 g, which have been anesthetized with sodium ethaminale (40 mg/kg intraperitoneally). A myocardial infarction was modeled for animals, transferred to controlled breathing, by ligation of a descending branch of the left-hand coronary artery to a level of the lower edge of an auricula atrii.
# The sizes of necrosis zones and ischemia zones have been determined within 4 hours after occlusion of the coronary artery by a differential indicator method, the principle of which is based on separate quantitative determination of Evans' blue (indicator of an ischemia zone) and red phormazane (indicator of an necrosis zone).
# tissue of the eye = assay: Local irritant action to tissue of the eye; format: in vivo, rabbit; settings: six rabbits, single instillation of 1% solution, within 1 min after dropping
# Method: The experimental measurements are carried out on six rabbits. All animals have been subjected to single instillation of 1% solution of compound I into the right eye and 1% solution of emoxypine into the left eye. The front section of the eye is controlled by a focal illumination method with a 20 D lens within 1 min. after dropping.
# traumatic hemophthalmia = assay: Experimental traumatic hemophthalmia: preclinical and ultrasonic examination; format: in vivo, chinchilla rabbits; settings: for Capability of ophthalmoscopy and eyeground: 3-point scale, 0 impossible, 3 details clearly visible; for Density of hemophthalmia: 100 SUD = ultrasonic sclera density; for Area of hemophthalmia / Volume of a hemophthalmia: parabulbar 0.5 ml of 1% solution daily
# Method: Studies were carried out in 12 chinchilla rabbits having body weight 2.0-2.5 kg. A traumatic hemophthalmia was modeled by introduction of 0.5 to 0.7 ml of autoblood into a vitreous body through a puncture in a sclera on distance of 5 mm from a limbus, under a local anaesthesia. The basic group made with 6 rabbits (12 eyes), daily received a formulation prepared in accordance with the present invention parabulbarly (0.5 ml of 1% solution). A control group presented by 6 animals (12 eyes), daily received parabulbar emoxipin (2-ethyl-6-methyl-3-hydroxypiridin) in the same dosage. Treatment was carried out within 14 days after a trauma.
# Besides the traditional ophthalmologic examination such as biomicroscopy, direct and indirect ophthalmoscopy, all the animals passed through ultrasonic scanning of an eye by means of the device “Voluson 730” (“Kretz”). The studies were carried out on the 1, 3, 7, 10 and 14th day of the experiment. For the estimation of efficiency of the treatment following tests were used: density, area, volume of a hemophthalmia and opportunity (possibility) of ophthalmoscopy of an eye ground. Density of a hemophthalmia was estimated in standard (conventional) units of density (SUD), 100 SUD were accepted for the maximal value, corresponding to the ultrasonic sclera density. Depending on the degree of acoustic density of a hemophthalmia, a high (100-50 SUD), medium (50-25 SUD) and low (less than 25 SUD) densities were distinguished. To determine the hemophthalmia the area measurement in sm^2 was used. The volume of the intraocular hemorrhage was studied with the help of 3D modelling in the B-regimen of a grey scale and measurement in sm^3.
# At the ultrasonic examination of the intact rabbit's eyes, the average volume of vitreous body (1.0±0.9 sm^3) and the average area of a vitreous body (1.04±0.8 sm^2) were fixed. Proceeding from the obtained data, the total hemophthalmia (from 100 up to 50% of the vitreous body volume) was equated to the volume of 0.5-1.0 sm^3 and of 0.5-1.0 sm^2, a wide-spread hemophthalmia (50-25% of volume of a vitreous) corresponded to the area of 0.5-0.25 sm^3, both 0.5-0.25 sm^2, and the partial hemophthalmia occupied up to 0.25 sm^3 and 0.25 sm^2 (up to 25% of the vitreous volume).
# Capability of the eyeground ophthalmoscopy was estimated by a 3-mark(point) scale depending on the image sharpness (0—ophthalmoscopy is impossible (not capable), 3—details of an eyeground are clearly visible).
# [4] = rats, 16 mg/kg, within 4 hours after occlusion of the coronary artery
substance,measurement,setting,value
"2,4,6-trimethyl-3-oxypyridine succinate [Compound Ic]",Speed of accumulation of TBK-active products for 30 min of reacting,[1]; compound 43 mM,0.05 nmol/mg
same,Inhibition,"[1]; compound 43 mM, 30 min of reacting",93.5%
same,Inhibition,"[1]; response time 15 min, 17 mM compound, 0.5 mM ascorbic acid",49.6%
same,Inhibition,"[1]; response time 30 min, 17 mM compound, 0.5 mM ascorbic acid",32.3%
same,Antiradical activity in comparison with mexydole,[2]; result in words,two times higher antiradical activity
same,k7 × 10^−4,[2]; speed constant of reaction with ethyl-benzene peroxide radicals,9.5 l/mol × sec
same,Ratio of necrosis zone to ischemia zone,[3]; [4],11 ± 3.3%
same,Ratio of necrosis zone to total mass of the myocardium,[3]; [4],4 ± 2.3%
same,Anti-ischemic activity in comparison,[3]; result in words,considerably higher anti-ischemic activity than the other 3-oxypyridines
same,"Local irritant reaction of conjunctiva, eyeglobe and cornea",tissue of the eye,do not show local irritating action on tissue of the eye
same,"Local irritant reaction of conjunctiva, eyeglobe and cornea",tissue of the eye; listed as I,not detected
same,Capability of ophthalmoscopy and eyeground,traumatic hemophthalmia; 1st day,1.5 points
same,Density of hemophthalmia,traumatic hemophthalmia; 1st day,84 ± 2.4 SUD
same,Area of hemophthalmia,traumatic hemophthalmia; 1st day,0.49 ± 0.7 sm^2
same,Volume of a hemophthalmia,traumatic hemophthalmia; 1st day,0.53 ± 0.4 sm^3
same,Capability of ophthalmoscopy and eyeground,traumatic hemophthalmia; 3rd day,0-0.5 points
same,Density of hemophthalmia,traumatic hemophthalmia; 3rd day,72 ± 3.1 SUD
same,Area of hemophthalmia,traumatic hemophthalmia; 3rd day,0.74 ± 0.9 sm^2
same,Volume of a hemophthalmia,traumatic hemophthalmia; 3rd day,0.78 ± 0.2 sm^3
same,Capability of ophthalmoscopy and eyeground,traumatic hemophthalmia; 7th day,1.5 points
same,Density of hemophthalmia,traumatic hemophthalmia; 7th day,49±1.4 SUD
same,Area of hemophthalmia,traumatic hemophthalmia; 7th day,0.47 ± 0.4 sm^2
same,Volume of a hemophthalmia,traumatic hemophthalmia; 7th day,0.51 ± 0.6 sm^3
same,Capability of ophthalmoscopy and eyeground,traumatic hemophthalmia; 10th day,2.2 points
same,Density of hemophthalmia,traumatic hemophthalmia; 10th day,23±1.1 SUD
same,Hemophthalmia completely resolved,"traumatic hemophthalmia; 10th day, group of 6 rabbits",two animals
same,Area of hemophthalmia,traumatic hemophthalmia; 10th day,0.24±0.1 sm^2 and 0.2 ± 0.1 sm^2
same,Volume of a hemophthalmia,traumatic hemophthalmia; 10th day,0.2±0.1 sm^3 and 0.24 ± 0.1 sm^3
same,Hemophthalmia completely resolved,traumatic hemophthalmia; 14th day,50 % of animals
same,Capability of ophthalmoscopy and eyeground,traumatic hemophthalmia; 14th day,2.8 points
same,Density of hemophthalmia,traumatic hemophthalmia; 14th day,13±0.6 SUD
same,Area of hemophthalmia,traumatic hemophthalmia; 14th day,0.11 ± 0.7 sm^2
same,Volume of a hemophthalmia,traumatic hemophthalmia; 14th day,0.15 ± 0.2 sm^3
same,Efficiency on resorption of traumatic hemophthalmia,traumatic hemophthalmia; conclusion in words,positive effect on the resorptive processes in a vitreous body; also recorded: much higher in comparison with emoxipin
